In data set [1] the target is T1, NAD-dependent protein deacetylase sirtuin-1 (Homo sapiens, UniProt Q96EB6).
T1 sequence (Q96EB6 whole entry): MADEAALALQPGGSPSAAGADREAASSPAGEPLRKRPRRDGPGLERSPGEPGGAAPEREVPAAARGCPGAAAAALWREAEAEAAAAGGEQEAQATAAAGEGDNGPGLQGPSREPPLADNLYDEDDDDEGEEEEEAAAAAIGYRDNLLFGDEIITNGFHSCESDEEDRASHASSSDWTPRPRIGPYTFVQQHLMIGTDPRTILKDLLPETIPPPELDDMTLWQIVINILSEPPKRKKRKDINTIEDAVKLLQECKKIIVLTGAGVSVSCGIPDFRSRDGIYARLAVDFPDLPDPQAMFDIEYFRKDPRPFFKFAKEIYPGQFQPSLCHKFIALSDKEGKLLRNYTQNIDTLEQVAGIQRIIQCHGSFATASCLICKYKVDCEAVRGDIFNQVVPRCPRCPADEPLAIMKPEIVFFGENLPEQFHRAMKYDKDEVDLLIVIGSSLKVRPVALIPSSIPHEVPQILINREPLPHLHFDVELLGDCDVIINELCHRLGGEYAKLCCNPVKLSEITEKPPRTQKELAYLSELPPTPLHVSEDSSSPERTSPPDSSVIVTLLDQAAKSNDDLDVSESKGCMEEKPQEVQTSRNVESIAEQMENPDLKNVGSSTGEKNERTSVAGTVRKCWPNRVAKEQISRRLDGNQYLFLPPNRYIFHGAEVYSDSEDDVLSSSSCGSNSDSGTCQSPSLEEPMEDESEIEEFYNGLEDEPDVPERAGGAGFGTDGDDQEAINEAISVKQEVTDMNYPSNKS
The experiment in a line: biochemical. The format is cell-based, BL21-DE3.
Description: Inhibition of full length human SIRT1 expressed in Escherichia coli BL21 (DE3) cells using fluorogenic 7-amino-4-methylcoumarin (AMC)-labeled peptide by fluorescence assay

Data set [2] deals with T2, NAD-dependent protein deacetylase sirtuin-2 (Homo sapiens, UniProt Q8IXJ6).
T2 sequence (Q8IXJ6 whole entry): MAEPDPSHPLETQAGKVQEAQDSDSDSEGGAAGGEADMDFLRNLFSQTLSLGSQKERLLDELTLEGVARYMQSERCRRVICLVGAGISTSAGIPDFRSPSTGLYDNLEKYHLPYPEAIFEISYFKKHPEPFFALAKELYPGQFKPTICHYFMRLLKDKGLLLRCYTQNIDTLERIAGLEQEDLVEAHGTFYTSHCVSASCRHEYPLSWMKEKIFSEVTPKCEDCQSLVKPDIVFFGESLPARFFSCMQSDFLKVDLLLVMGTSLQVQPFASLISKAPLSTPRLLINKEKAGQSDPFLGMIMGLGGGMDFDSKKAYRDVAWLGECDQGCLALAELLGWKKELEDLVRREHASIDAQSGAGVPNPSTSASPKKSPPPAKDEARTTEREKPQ
The experiment in a line: Inhibition of full length human SIRT2 expressed in Escherichia coli BL21 (DE3) cells using fluorogenic 7-amino-4-methylcoumarin (AMC)-labeled peptide by fluorescence assay.

In data set [3] the target is T3, NAD-dependent protein deacetylase sirtuin-3, mitochondrial (Homo sapiens, UniProt Q9NTG7).
T3 sequence (Q9NTG7 whole entry): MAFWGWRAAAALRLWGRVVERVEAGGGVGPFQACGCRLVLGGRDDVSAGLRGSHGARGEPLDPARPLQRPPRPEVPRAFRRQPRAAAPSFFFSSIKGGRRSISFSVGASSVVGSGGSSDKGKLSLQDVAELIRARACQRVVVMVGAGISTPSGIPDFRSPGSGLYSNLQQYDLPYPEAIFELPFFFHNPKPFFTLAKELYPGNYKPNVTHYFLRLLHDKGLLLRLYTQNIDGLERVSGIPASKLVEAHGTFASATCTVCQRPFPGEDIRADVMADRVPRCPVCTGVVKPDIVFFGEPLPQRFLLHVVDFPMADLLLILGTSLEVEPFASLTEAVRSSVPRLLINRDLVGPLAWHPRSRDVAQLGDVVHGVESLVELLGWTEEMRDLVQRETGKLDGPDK
The experiment in a line: biochemical.
Description: Inhibition of catalytically active human SIRT3 (102 to 399 amino acids) expressed in Escherichia coli BL21 (DE3) cells using fluorogenic 7-amino-4-methylcoumarin (AMC)-labeled peptide by fluorescence assay

Data set [4] in a line: Apparent permeability from basolateral to apical side in MDCK2 cells at 25 uM incubated for 15 to 180 mins by HPLC method. The conditions noted are these: dog, MDCK. In kind it is ADME, cell-based, Canis lupus familiaris, MDCK-II.
Data set [5] concerns K562. Description: cells. Particulars: Homo sapiens, K562, 48 h.
Description: Cytotoxicity against human K562 cells assessed as reduction in cell growth incubated for 48 hrs by alamar blue assay
A short description of data set [6]: Apparent permeability from apical to basolateral side in MDCK2 cells at 25 uM incubated for 15 to 180 mins by HPLC method. In kind it is ADME, cell-based, Canis lupus familiaris, MDCK-II. The conditions noted are these: dog, MDCK.
The test system of data set [7] is DU-145. The experiment in a line: cells. Particulars: Homo sapiens, DU-145, 48 h.
Description: Cytotoxicity against human DU145 cells assessed as reduction in cell growth incubated for 48 hrs by alamar blue assay
The test system of data set [8] is MCF7. The experiment in a line: cells. Particulars: Homo sapiens, MCF7, 48 h.
Description: Cytotoxicity against human MCF7 cells assessed as reduction in cell growth incubated for 48 hrs by alamar blue assay

Nine compounds from ChEMBL document CHEMBL3351796, “Discovery of potent and selective sirtuin 2 (SIRT2) inhibitors using a fragment-based approach” (J Med Chem, 2014) can be followed below.

pIC50: −log10 of the molar value.

As usually defined, the pIC50 is the negative decadic logarithm of the IC50, by convention in mol/L. Read a low pIC50 as a large IC50. Broadly, the Papp B→A is the apparent permeability from the basolateral to the apical side of a cell layer. In general, CC50 refers to the concentration that lowers cell viability or growth by half. A low value points to greater toxicity to the cells. A word on the Papp A→B: it is the apparent permeability from the apical to the basolateral side of a cell layer.

Take `NC(=O)c1cncc(Oc2ccc3ccccc3c2)c1`: the negative logarithm of the IC50 (pIC50) was 4.87 in data set [1], 5.20 in data set [2] and 5.67 in data set [3].
On to `NC(=O)c1cncc(Oc2cccc3c(NC(=O)c4ccccc4)cccc23)c1`, for which, in data set [2], the pIC50 was 7.32. Further, the Papp B→A at 25 µM in data set [4] amounted to 4.35 ×10⁻⁶ cm/s. Moreover, the results for the CC50 in data set [5], in data set [7] and in data set [8] were 26.2 µM, 33.3 µM and 30.6 µM, respectively. Also, the Papp A→B at 25 µM in data set [6] was found to be 3.84 ×10⁻⁶ cm/s.
`Cc1ccc(C(=O)Nc2cccc3cc(Oc4cncc(C(N)=O)c4)ccc23)cc1[N+](=O)[O-]`: the pIC50 was 6.10 in data set [1], 6.06 in data set [2] and 5.36 in data set [3].
`NC(=O)c1cncc(Nc2cccc3ccccc23)c1`: the negative-log IC50 (pIC50) in data set [1] was 4.39; in data set [2] it was 5.01; in data set [3], 5.05.
Regarding `NC(=O)c1cncc(Oc2cccc3c(NC(=O)c4cccc([N+](=O)[O-])c4)cccc23)c1`, the results for the pIC50 in data set [1] and in data set [2] were 4.19 and 6.36, respectively.
Turning to `NC(=O)c1cncc(Nc2ccc3ccccc3c2)c1`, the pIC50 in data set [1] is 4.47; in data set [2], 5.37.
Taken in the same sequence, the figures for `NC(=O)c1cncc(Oc2ccc3c(NC(=O)c4cccc([N+](=O)[O-])c4)cccc3c2)c1` were 4.93 and 6.09.
Consider `NC(=O)c1cncc(Sc2ccc3ccccc3c2)c1`, for which the negative logarithm of the IC50 (pIC50) in data set [1] is 4.57; in data set [2] it was 4.92.
For `NC(=O)c1cncc(Oc2cccc3c(NC(=O)c4cccnc4)cccc23)c1` the same measures were 4.15 and 6.25.
